For assay [1], the target named is hNurr1_RXRγFL (NURR1/RXRγ heterodimer) (Homo sapiens, UniProt P43354+P48443). The experiment in a line: Transactivation assay in Cos-7 cells, NURR-1-Gal4 / RXRγ, luciferase reporter. Type of assay: cell-based. Conditions: for Emax: COS-7, read-out: hNurr1_RXRγFL Eff (%), efficacy in % relative to the reference XCT0135908 at 2·10^−5 M (=100%); for EC50: Cos-7 cells, overnight incubation. In short, it runs like this: (§1)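 Efficiency is given as a percentage of the induction produced by 2·10^−5 M XCT0135908 (100%), measured from heterodimer baseline. Read-out was luciferase after overnight exposure to compounds (10^−4–3·10^−10 M final) in Cos-7 cells transfected with NURR-1-Gal4, RXRα or RXRγ, and a Gal4 luciferase reporter.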
For orientation: In a reporter assay the amount or activity of a reporter protein is the signal.

Assay [2] has as its target hNurr1_RXRαFL (NURR1/RXRα heterodimer) (Homo sapiens, UniProt P19793+P43354). The experiment in a line: Transactivation assay in Cos-7 cells, NURR-1-Gal4 / RXRα, luciferase reporter. It counts as cell-based. Conditions: for Emax: COS-7, read-out: hNurr1_RXRαFL Eff (%), efficacy in % relative to the reference XCT0135908 at 2·10^−5 M (=100%); for EC50: Cos-7 cells, overnight incubation. In short, it runs like this:
as §1

Where [3] appears, read: efficacy in % relative to the reference XCT0135908 at 2·10^−5 M (=100%).

hNurr1_RXRγFL (NURR1/RXRγ heterodimer), sequence (P43354 328-598): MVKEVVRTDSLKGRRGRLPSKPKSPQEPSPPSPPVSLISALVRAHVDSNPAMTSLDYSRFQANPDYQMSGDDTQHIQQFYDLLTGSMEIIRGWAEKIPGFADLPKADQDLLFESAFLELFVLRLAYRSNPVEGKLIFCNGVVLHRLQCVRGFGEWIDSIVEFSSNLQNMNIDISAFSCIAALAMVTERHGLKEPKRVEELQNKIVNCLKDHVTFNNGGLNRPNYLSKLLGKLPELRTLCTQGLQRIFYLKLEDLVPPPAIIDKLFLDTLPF
hNurr1_RXRγFL (NURR1/RXRγ heterodimer), sequence (P48443 whole entry, the tested form may be a part): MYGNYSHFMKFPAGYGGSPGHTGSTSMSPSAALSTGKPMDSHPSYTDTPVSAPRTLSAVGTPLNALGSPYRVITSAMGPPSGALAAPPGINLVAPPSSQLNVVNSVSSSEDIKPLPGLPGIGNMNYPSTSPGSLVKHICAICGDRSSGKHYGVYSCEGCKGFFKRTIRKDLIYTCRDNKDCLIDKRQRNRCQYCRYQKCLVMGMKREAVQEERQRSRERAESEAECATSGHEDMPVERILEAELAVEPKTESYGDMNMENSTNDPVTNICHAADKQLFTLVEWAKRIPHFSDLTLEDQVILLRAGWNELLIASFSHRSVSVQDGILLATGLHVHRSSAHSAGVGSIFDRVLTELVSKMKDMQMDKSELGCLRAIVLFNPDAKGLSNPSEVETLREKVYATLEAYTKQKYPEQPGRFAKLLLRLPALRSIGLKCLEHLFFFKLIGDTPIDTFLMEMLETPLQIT
hNurr1_RXRαFL (NURR1/RXRα heterodimer), sequence (P19793 whole entry, the tested form may be a part): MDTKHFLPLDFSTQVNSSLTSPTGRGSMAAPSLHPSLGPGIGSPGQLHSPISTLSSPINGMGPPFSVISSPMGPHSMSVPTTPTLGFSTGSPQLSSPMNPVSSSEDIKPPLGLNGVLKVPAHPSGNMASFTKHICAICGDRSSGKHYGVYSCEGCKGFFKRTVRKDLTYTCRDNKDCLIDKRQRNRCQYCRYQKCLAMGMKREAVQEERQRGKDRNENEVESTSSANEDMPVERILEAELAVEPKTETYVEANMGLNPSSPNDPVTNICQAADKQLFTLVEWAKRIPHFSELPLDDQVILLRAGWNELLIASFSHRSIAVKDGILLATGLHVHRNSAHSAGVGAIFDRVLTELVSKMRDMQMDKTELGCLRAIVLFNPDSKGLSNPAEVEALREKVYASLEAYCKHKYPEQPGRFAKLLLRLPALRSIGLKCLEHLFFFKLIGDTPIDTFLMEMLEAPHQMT
hNurr1_RXRαFL (NURR1/RXRα heterodimer), sequence (P43354 328-598): as the sequence (P43354 328-598) above

As to `O=C(O)c1ccc(Cc2cc3cc(Cl)ccc3n2S(=O)(=O)c2ccc3ccccc3c2)cc1` [Example 163, 4-[[5-chloro-1-(2-naphthalenylsulfonyl)-1H-indol-2-yl]methyl]benzoic acid], the Emax in assay [1] turned out to be 34%; in assay [2] it was 53%. Further, the half-maximal effective concentration (EC50) in assay [1] was 933 nM; in assay [2], 427 nM.
The like results for `CC(C)CCc1ccc(S(=O)(=O)n2c(Cc3ccc(C(=O)O)cc3)cc3cc(C(F)(F)F)ccc32)cc1` [Example 128, 4-[[1-[4-(3-methyl-butyl)-phenylsulfonyl]-5-(trifluoromethyl)-1H-indol-2-yl]methyl]benzoic acid] were, in that order, 36%, 44%, 1590 nM and 337 nM.
The matching figures for `CC(C)(C)c1cccc(S(=O)(=O)n2c(Cc3ccc(-c4nn[nH]n4)cc3)cc3cc(C(F)(F)F)ccc32)c1` [Example 221, 4-[1-[3-(1,1-dimethylethyl)phenyl]sulfonyl]-5-(trifluoromethyl)-1H-indol-2H-tetrazol-5-yl-benzyl]: 57%, 66%, 162 nM and 191 nM.
Consider `O=C(O)c1ccc(Cc2cc3cc(Cl)ccc3n2S(=O)(=O)c2ccc(C(F)(F)F)cc2)cc1` [Example 158, 4-[[1-[4-trifluoro-phenylsulfonyl]-5-(chloro)-1H-indol-2-yl]methyl]benzoic acid], for which, in assay [1], the Emax stood at 53% and the EC50 turned out to be 1260 nM. In addition, in assay [2], the Emax is 66% and it took 504 nM to reach a half-maximal effect (EC50).
With `CCC(C)(C)c1ccc(S(=O)(=O)n2c(Cc3ccc(C(=O)O)cc3)cc3cc(Cl)ccc32)cc1` [Example 168, 4-[[5-chloro-1-[[4-(1,1-dimethylpropyl)phenyl]sulfonyl]-1H-indol-2-yl]methyl]benzoic acid], the figures for the Emax in assay [1] and in assay [2] were 52% and 48%, respectively. In addition, the results for the 50% effective concentration (EC50) in assay [1] and in assay [2] were 501 nM and 422 nM, respectively.
Turning to `COC(=O)c1ccc(Cc2cc3cc(Cl)ccc3n2S(=O)(=O)c2ccc3c(c2)C(C)(C)CO3)cc1` [Example 182], the EC50 stood at 154 nM in assay [1] and 55 nM in assay [2]. The “hNurr1_RXRγFL Eff (%)” value in assay [1] (setting [3]) was 85%. Further, the “hNurr1_RXRαFL Eff (%)” value in assay [2] (setting [3]) was found to be 83%.
Consider `O=C(O)c1ccc(Cc2cc3cc(C(F)(F)F)ccc3n2S(=O)(=O)c2cccc(C3CC3)c2)cc1` [Example 59, 4-[1-(3-cyclopropyl-benzenesulfonyl)-5-trifluoromethyl-1H-indol-2-ylmethyl]-benzoic acid], for which, in assay [1], the Emax amounted to 31% and a half-maximal effect (EC50) was put at 297 nM. In addition, in assay [2], the Emax came to 70% and the EC50 is 274 nM.
The like results for `O=C(O)c1ccc(Cc2cc3cc(C(F)(F)F)ccc3n2S(=O)(=O)c2ccsc2)cc1` [Example 16, 4-[[1-(3-thienylsulfonyl)-5-(trifluoromethyl)-1H-indol-2-yl]methyl]benzoic acid] were, in that order, 45%, 628 nM, 66% and 617 nM.
The matching figures for `CC(C)(C)c1cccc(S(=O)(=O)n2c(Cc3ccc(F)c(C(=O)O)c3)cc3cc(C(F)(F)F)ccc32)c1` [Example 210, 3-[[1-[[3-(1,1-dimethylethyl)-phenyl]sulfonyl]-5-trifluoromethyl-1H-indol-2-yl]methyl]-6-fluorobenzoic acid]: 68%, 81 nM, 70% and 69 nM.
On to `CC(C)Oc1ccc(S(=O)(=O)n2c(Cc3ccc(C(=O)O)cc3)cc3cc(Cl)ccc32)cc1` [Example 162, 4-[[1-[4-isopropoxy-phenylsulfonyl]-5-(chloro)-1H-indol-2-yl]methyl]benzoic acid], for which, in assay [1], the Emax was found to be 40% and the EC50 came out at 1550 nM. Further, in assay [2], the Emax was 56% and the 50% effective concentration (EC50) was 692 nM.

By EC50 is commonly meant the concentration giving half of the maximal effect. Read a high EC50 as a less potent agent.
